We go through eleven molecules from patent publication US20240158412A1 (Faxian Therapeutics, LLC, priority 2021, published 2024).
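Also: fluorescence intensity readout of USP7 enzymatic activity, reaction incubated 90 min at room temperature.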

In the test the target is USP7 (Homo sapiens, UniProt Q93009). Kind of test: biochemical.
USP7, sequence (Q93009 whole entry): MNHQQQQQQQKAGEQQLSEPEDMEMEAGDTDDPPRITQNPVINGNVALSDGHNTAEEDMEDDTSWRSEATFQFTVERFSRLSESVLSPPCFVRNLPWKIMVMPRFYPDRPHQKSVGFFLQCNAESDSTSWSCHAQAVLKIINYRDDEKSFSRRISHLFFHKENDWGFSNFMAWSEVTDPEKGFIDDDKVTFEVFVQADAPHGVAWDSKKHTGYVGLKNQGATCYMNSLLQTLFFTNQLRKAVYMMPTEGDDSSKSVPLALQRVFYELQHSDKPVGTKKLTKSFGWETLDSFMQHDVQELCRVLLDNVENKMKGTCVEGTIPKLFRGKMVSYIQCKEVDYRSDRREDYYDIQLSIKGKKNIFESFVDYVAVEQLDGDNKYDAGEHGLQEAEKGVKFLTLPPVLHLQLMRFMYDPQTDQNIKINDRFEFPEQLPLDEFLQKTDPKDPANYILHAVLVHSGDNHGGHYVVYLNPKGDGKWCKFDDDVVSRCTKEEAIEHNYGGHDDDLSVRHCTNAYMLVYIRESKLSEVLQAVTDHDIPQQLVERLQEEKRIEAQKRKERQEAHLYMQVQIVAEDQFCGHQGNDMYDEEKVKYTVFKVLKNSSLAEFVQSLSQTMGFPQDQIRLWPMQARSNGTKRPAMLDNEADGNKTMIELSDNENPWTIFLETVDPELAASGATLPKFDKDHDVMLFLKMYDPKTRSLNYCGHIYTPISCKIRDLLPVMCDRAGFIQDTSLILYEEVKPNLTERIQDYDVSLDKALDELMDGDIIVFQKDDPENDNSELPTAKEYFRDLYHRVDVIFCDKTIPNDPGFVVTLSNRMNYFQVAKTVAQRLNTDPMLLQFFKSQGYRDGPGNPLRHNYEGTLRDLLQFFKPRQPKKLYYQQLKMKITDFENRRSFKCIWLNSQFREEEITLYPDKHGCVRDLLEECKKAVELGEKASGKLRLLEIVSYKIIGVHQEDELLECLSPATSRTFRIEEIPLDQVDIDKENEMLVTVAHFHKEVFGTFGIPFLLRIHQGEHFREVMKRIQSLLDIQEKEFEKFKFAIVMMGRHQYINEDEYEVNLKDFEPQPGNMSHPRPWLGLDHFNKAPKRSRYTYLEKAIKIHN
Description: Example A. Biochemical Assay of USP7 Inhibitor Potency (IC50)
Fluorescence intensity assay of USP7 activity in the presence USP7 inhibitors. Recombinant USP7 protein (catalogue number E-519) and the fluorescence substrate ubiquitin-rhodamine 110 (Rh110) (catalogue number U-555) were purchased from Boston Biochem (840 Memorial Drive, Cambridge, MA 02139). The reaction was carried out in buffer 20 mM HEPES, pH 7.3, 150 mM NaCl, 1 mM TCEP, 125 μg/mL BSA at room temperature in a black 384-well Microplate (Greiner, catalog number 781076).
Test compounds were dissolved in DMSO to make 50 mM stock solution. […] In wells of a black 384-well Microplate, 15 μl of 100 pM of USP7 enzyme was added to each well with pre-diluted compounds and incubated at room temperature for 30 minutes, followed by addition of 10 μl of ubiquitin-rhodamine 110 (Rh110) substrate to reach 160 nM final concentration. The reaction mixtures were incubated for additional 90 minutes at room temperature. The fluorescence signal of the digested substrate was measured on an EnVision microplate reader (PerkinElmer,), using excitation at 485 nm and emission at 535 nm. The IC50 values were calculated using XLfit software.
As for `O=C1COC(=O)N1Cc1cc2nccc(-c3cc(Cl)cc4c3N([C@H]3CCNC3)CCC4)c2s1` [Example 73, (S)-3-((7-(6-chloro-1-(pyrrolidin-3-yl)-1,2,3,4-tetrahydroquinolin-8-yl)thieno[3,2-b]pyridin-2-yl)methyl)oxazolidine-2,4-dione], the concentration for half-maximal inhibition (IC50) – broadly, the concentration at which inhibition is half-maximal – was < 10 nM.

Molecule `Cc1cc(-c2cc(Cl)cc3c2N([C@H]2CCNC2)CCC3)c2sc(CN3C(=O)CCC3=O)cc2n1` [Example 116, (S)-1-((7-(6-chloro-1-(pyrrolidin-3-yl)-1,2,3,4-tetrahydroquinolin-8-yl)-5-methylthieno[3,2-b]pyridin-2-yl)methyl)pyrrolidine-2,5-dione] registered a 50% inhibitory concentration (IC50) of 101 to 1000 nM.

As for `N#Cc1cc(-c2ccnc3cc(Cn4c(=O)ccn(CC(F)(F)F)c4=O)sc23)c2c(c1)[C@@H]1C[C@@H]1CN2[C@@H]1CNC2(CCC2)C1` [Example 169, (1aS,7bR)-4-(2-((2,6-dioxo-3-(2,2,2-trifluoroethyl)-3,6-dihydropyrimidin-1(2H)-yl)methyl)thieno[3,2-b]pyridin-7-yl)-3-((S)-5-azaspiro[3.4]octan-7-yl)-1a,2,3,7b-tetrahydro-1H-cyclopropa[c]quinoline-6-carbonitrile], the IC50 was < 10 nM.

For `N#Cc1cc2c(c(-c3ccnc4cc(CN5C(=O)C6CC6C5=O)sc34)c1)N([C@@H]1CNC3(CCCC3)C1)CCC2` (stereo partly drawn) [Example 178b, 8-(2-((2,4-dioxo-3-azabicyclo[3.1.0]hexan-3-yl)methyl)thieno[3,2-b]pyridin-7-yl)-1-((S)-1-azaspiro[4.4]nonan-3-yl)-1,2,3,4-tetrahydroquinoline-6-carbonitrile], the IC50 is < 10 nM.

The molecule `N#Cc1cc(-c2ccnc3cc(Cn4c(=O)ccn(CC(F)F)c4=O)sc23)c2c(c1)[C@H]1C[C@H]1CN2[C@@H]1CCNC1` [Example 117a, (1aR,7bS)-4-(2-((3-(2,2-difluoroethyl)-2,6-dioxo-3,6-dihydropyrimidin-1(2H)-yl)methyl)thieno[3,2-b]pyridin-7-yl)-3-((R)-pyrrolidin-3-yl)-1a,2,3,7b-tetrahydro-1H-cyclopropa[c]quinoline-6-carbonitrile] yielded an IC50 of 101 to 1000 nM.

In turn, `CC(=O)N1CC(N2CCCc3cc(Cl)cc(-c4ccnc5cc(CN6C(=O)CCC6=O)sc45)c32)C1` [Example 8, 1-((7-(1-(1-acetylazetidin-3-yl)-6-chloro-1,2,3,4-tetrahydroquinolin-8-yl)thieno[3,2-b]pyridin-2-yl)methyl)pyrrolidine-2,5-dione] yielded a concentration for half-maximal inhibition (IC50) of 101 to 1000 nM.

As for `O=c1ccn(C2CC(F)(F)C2)c(=O)n1Cc1cc2nccc(-c3cc(Cl)cc4c3N([C@@H]3CNC5(CCC5)C3)CCC4)c2s1` [Example 146, (S)-3-((7-(6-chloro-1-(5-azaspiro[3.4]octan-7-yl)-1,2,3,4-tetrahydroquinolin-8-yl)thieno[3,2-b]pyridin-2-yl)methyl)-1-(3,3-difluorocyclobutyl)pyrimidine-2,4(1H,3H)-dione], the IC50 was < 10 nM.

For the molecule `N#CC1(Cn2ccc(=O)n(Cc3cc4nccc(-c5cc(Cl)cc6c5N([C@H]5CCNC5)CCC6)c4s3)c2=O)CC1` [Example 70, (S)-1-((3-((7-(6-chloro-1-(pyrrolidin-3-yl)-1,2,3,4-tetrahydroquinolin-8-yl)thieno[3,2-b]pyridin-2-yl)methyl)-2,4-dioxo-3,4-dihydropyrimidin-1(2H)-yl)methyl)cyclopropanecarbonitrile], the 50% inhibitory concentration (IC50) is < 10 nM.

On to `CC1(C)CC(N2CCOc3cc(C#N)cc(-c4ccnc5cc(Cn6c(=O)ccn(CC(F)(F)F)c6=O)sc45)c32)CN1` (single isomer, unassigned) [Example 133a], for which the IC50 is < 10 nM.

For the molecule `O=C1CCC(=O)N1Cc1cc2nccc(-c3cc(Cl)cc4c3N([C@H]3CCCNCC3)CCC4)c2s1` (single isomer, unassigned) [Example 47a], the 50% inhibitory concentration (IC50) is < 10 nM.

Turning to `O=C1CCC(=O)N1Cc1cc2nccc(-c3cc(Cl)cc4c3N([C@H]3CCCNC3)CCC4)c2s1` (single isomer, unassigned) [Example 51a], the IC50 is < 10 nM.
